Results taken from PubChem BioAssay (NCI).
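Interpolation was linear, between the two tested concentrations surrounding the appropriate level; five concentrations were tested over 48 hours in 96-well plates. Here, GI50 denotes the concentration required for 50% inhibition of growth. Definition used: TGI = concentration required for complete inhibition of growth.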

How the values were obtained:
Test in all cases: inhibition of tumour cell growth, NCI panel, 48 h
[1] = test system: A549 NSCLC
[2] = test system: HCT-15 colon
[3] = test system: MDA-MB-231 breast
[4] = test system: OVCAR-3 ovarian
[5] = test system: SK-MEL-28 melanoma
[6] = test system: SN12C renal
[7] = test system: SNB-19 CNS
[8] = test system: U251 CNS

Structure (SMILES) | GI50 [1] [µM] | TGI [1] [µM] | GI50 [2] [µM] | TGI [2] [µM] | GI50 [3] [µM] | TGI [3] [µM] | GI50 [4] [µM] | TGI [4] [µM] | GI50 [5] [µM] | TGI [5] [µM] | GI50 [6] [µM] | TGI [6] [µM] | GI50 [7] [µM] | TGI [7] [µM] | GI50 [8] [µM] | TGI [8] [µM]
COc1cc(-c2nc(Nc3nc4ccccc4[nH]3)nc(N)c2C#N)cc(OC)c1OC | 30.7 | > 100 | 18.1 | > 100 | 13.1 | 92.4 | 0.286 | 3.61 | 19.1 | > 100 | 29.1 | > 100 | 21 | > 100 | 10.8 | 72.4
Cc1cc2c(cc1Cl)SC1=CC(=O)N(c3ccccc3)C1=NS2(=O)=O | > 100 | > 100 | > 100 | > 100 | 43.7 | > 100 | > 100 | > 100 | 16.9 | 40.9 | 32 | > 100 | 54.5 | > 100 | 57.5 | > 100
COc1cc(C(=O)c2ccc3c(c2)OCO3)cc(OC)c1OC | 6.03 | > 100 | 0.928 | > 100 | 8.65 | > 100 | 1.4 | 3.93 | 3.69 | > 100 | 6.86 | > 100 | 5.07 | > 100 | 2.81 | > 100
Cn1ccnc1C(=O)/C=C/c1ccc(C(=O)Nc2ccc(Cl)cc2)cc1 | 0.951 | > 33.3 | 0.676 | 3.12 | 1.2 | 16.7 | 0.91 | 3.16 | 3.7 | 9.89 | 1.01 | 5.07 | 0.987 | > 33.3 |  | 
COC(=O)Nc1nc2ccc(Oc3ccc(NC(=O)Nc4cccc(C(=O)O)c4)cc3)cc2[nH]1 | 10.5 | > 25 | 6.49 | > 25 | 11.5 | > 25 | 4.41 | 10.5 | 10 | > 25 | 11.9 | > 25 | 9.36 | > 25 | 7.35 | > 25
COc1ccc2nc(-c3cc(-c4cc(OC)c(OC)c(OC)c4)n[nH]3)[nH]c2c1 | 1.63 | 5.25 | 2.5 | 10.7 | 2.87 | 12.9 | 2.05 | 6.18 | 1.9 | 5.26 | 2.06 | 8.45 | 2.98 | 14.1 | 2.9 | 11.5
CC1=C[C@H]2c3c(c(O)c(O)c4oc5c(C)cccc5c(=O)c34)[C@H](c3cc(O)c(O)c4oc5c(C)cccc5c(=O)c34)[C@H]2C(C)(C)C1 | 1.04 | 4.85 | 1.29 | 10.9 | 2.88 | 14.6 | 1.52 | 9.34 | 1.6 | 4.18 | 1.69 | 6.7 | 2.27 | 11.2 | 1.23 | 7.09
Cn1nccc1Nc1nccc(-c2cc3c(s2)C(C)(C)N(CCN2CCOCC2)C3=O)n1 | 5.27 | > 100 | 16.9 | > 100 | 2.8 | > 100 | 27.2 | > 100 | 0.348 | > 100 | 17.1 | > 100 | 41.9 | > 100 | 33.7 | > 100
CC1=CC(=NC(=O)CBr)C=C/C1=N\S(=O)(=O)c1ccccc1 | 13.9 | 34.8 | 1.99 | 4.67 | 2.48 | 6.42 | 2.04 | 4.47 | 6.25 | 19.4 | 1.83 | 3.59 | 13.6 | 26.9 | 3.37 | 12.2
CC(=O)N1N=C2/C(=C/c3ccccc3)CC(C)CC2C1c1ccccc1 (stereo not drawn) | 13.3 | 51.5 | 13.7 | 28.9 | 14.2 | 31.8 | 14.9 | 32.6 | 18.5 | 36.5 | 14.8 | 30.4 | 14.5 | 30.1 | 11.7 | 25.4
O=[N+]([O-])c1ccc(Br)c([N+](=O)[O-])c1 | 4.12 | 16.4 | 1.93 | 4.59 | 2.68 | 7.12 | 1.88 | 3.38 | 1.89 | 3.64 | 2.37 | 5.68 | 2.9 | 9.28 | 1.72 | 3.29
Cc1cc(N2CCCCC2)nc(N(CCCNc2ccnc3cc(Cl)ccc23)Cc2ccco2)n1 | 3.34 | 11.2 | 1.62 | 4.88 | 1.73 | 4.24 | 2.02 | 5.01 | 1.62 | 3.28 | 2.14 | 7.15 | 2.93 | 13.5 | 1.8 | 3.76
CC(C)=CCC[C@H](C)[C@@H]1CC[C@]2(C)C3CC[C@]4(OC4(C)C)C(CCCO)[C@]3(C)CC[C@@]12C (stereo partly drawn) | 37.7 | > 100 | 26.5 | > 100 | 20.5 | 43.3 | 26.7 | 52.8 | 23.9 | 58.5 |  |  | 24 | 62.3 | 19.7 | 66.1
Oc1ccccc1-c1nn(CNc2cccc(Cl)c2)c(=S)o1 | 74.8 | > 100 |  |  | 60.2 | > 100 | 30.4 | > 100 |  |  | > 100 | > 100 | > 100 | > 100 | 4.91 | 39.6
CC(=O)N1c2ccccc2C23CCN(C)CC4C(C)OCC(C4CC2=O)C13 (stereo not drawn) |  | > 100 |  | > 100 |  | > 100 |  |  |  | > 100 |  | > 100 |  | > 100 |  | > 100
